Source: the NIST ThermoML archive (doi:10.1021/acs.jced.8b00554)
Numbers after ± are expanded uncertainties.

Key:
[1] = Liquid, Vibrating tube method
[2] = refractive index (Na D-line) (dimensionless); conditions: 298.15 K; 101.33 kPa; Liquid; Standard Abbe refractometry

For CCCCCCCC [octane], the mass density ([1]; 313.15 K, 100 kPa) was 686.05 ± 4.1 kg/m3, the mass density ([1]; 313.15 K, 1030 kPa) was 687.19 ± 4.1 kg/m3 and the mass density ([1]; 313.15 K, 1950 kPa) was 688.13 ± 4.1 kg/m3. For the same molecule, the mass density ([1]; 313.15 K, 2950 kPa) was 689.08 ± 4.1 kg/m3, the mass density ([1]; 313.15 K, 3960 kPa) was 690 ± 4.1 kg/m3 and the mass density ([1]; 313.15 K, 4960 kPa) was 690.87 ± 4.2 kg/m3. For the same molecule, the mass density ([1]; 313.15 K, 5970 kPa) was 691.78 ± 4.2 kg/m3, the mass density ([1]; 313.15 K, 6970 kPa) was 692.65 ± 4.2 kg/m3 and the mass density ([1]; 313.15 K, 7980 kPa) was 693.54 ± 4.2 kg/m3. The mass density ([1]; 313.15 K, 8980 kPa) was 694.38 ± 4.2 kg/m3, the mass density ([1]; 313.15 K, 9990 kPa) was 695.26 ± 4.2 kg/m3 and the mass density ([1]; 313.15 K, 11030 kPa) was 696.11 ± 4.2 kg/m3. The mass density ([1]; 313.15 K, 11950 kPa) was 696.94 ± 4.2 kg/m3, the mass density ([1]; 313.15 K, 12950 kPa) was 697.75 ± 4.2 kg/m3 and the mass density ([1]; 313.15 K, 13960 kPa) was 698.56 ± 4.2 kg/m3. For the same molecule, the mass density ([1]; 313.15 K, 14960 kPa) was 699.37 ± 4.2 kg/m3, the mass density ([1]; 313.15 K, 15970 kPa) was 700.18 ± 4.2 kg/m3 and the mass density ([1]; 313.15 K, 16970 kPa) was 700.99 ± 4.2 kg/m3. The mass density ([1]; 313.15 K, 17980 kPa) was 701.77 ± 4.2 kg/m3, the mass density ([1]; 313.15 K, 18980 kPa) was 702.53 ± 4.2 kg/m3 and the mass density ([1]; 313.15 K, 19990 kPa) was 703.31 ± 4.2 kg/m3. It also gave a mass density ([1]; 323.15 K, 100 kPa) of 677.56 ± 4.1 kg/m3, a mass density ([1]; 323.15 K, 950 kPa) of 678.99 ± 4.1 kg/m3 and a mass density ([1]; 323.15 K, 1960 kPa) of 680.02 ± 4.1 kg/m3. It also gave a mass density ([1]; 323.15 K, 2970 kPa) of 681.01 ± 4.1 kg/m3, a mass density ([1]; 323.15 K, 3980 kPa) of 681.99 ± 4.1 kg/m3 and a mass density ([1]; 323.15 K, 4980 kPa) of 682.97 ± 4.1 kg/m3. The mass density ([1]; 323.15 K, 5980 kPa) was 683.91 ± 4.1 kg/m3, the mass density ([1]; 323.15 K, 6990 kPa) was 684.86 ± 4.1 kg/m3 and the mass density ([1]; 323.15 K, 7990 kPa) was 685.78 ± 4.1 kg/m3. It also gave a mass density ([1]; 323.15 K, 9000 kPa) of 686.69 ± 4.1 kg/m3, a mass density ([1]; 323.15 K, 10090 kPa) of 687.59 ± 4.1 kg/m3 and a mass density ([1]; 323.15 K, 10950 kPa) of 688.51 ± 4.1 kg/m3. It also gave a mass density ([1]; 323.15 K, 11960 kPa) of 689.4 ± 4.2 kg/m3, a mass density ([1]; 323.15 K, 12970 kPa) of 690.29 ± 4.2 kg/m3 and a mass density ([1]; 323.15 K, 13980 kPa) of 691.16 ± 4.2 kg/m3. It also gave a mass density ([1]; 323.15 K, 14980 kPa) of 691.98 ± 4.2 kg/m3, a mass density ([1]; 323.15 K, 15980 kPa) of 692.86 ± 4.2 kg/m3 and a mass density ([1]; 323.15 K, 16990 kPa) of 693.68 ± 4.2 kg/m3. For the same molecule, the mass density ([1]; 323.15 K, 17990 kPa) was 694.53 ± 4.2 kg/m3, the mass density ([1]; 323.15 K, 19000 kPa) was 695.33 ± 4.2 kg/m3 and the mass density ([1]; 323.15 K, 20090 kPa) was 696.18 ± 4.2 kg/m3. For the same molecule, the mass density ([1]; 333.15 K, 100 kPa) was 669.13 ± 4 kg/m3, the mass density ([1]; 333.15 K, 1050 kPa) was 670.67 ± 4 kg/m3 and the mass density ([1]; 333.15 K, 1940 kPa) was 671.75 ± 4 kg/m3. For the same molecule, the mass density ([1]; 333.15 K, 2950 kPa) was 672.81 ± 4 kg/m3, the mass density ([1]; 333.15 K, 3950 kPa) was 673.87 ± 4 kg/m3 and the mass density ([1]; 333.15 K, 4960 kPa) was 674.91 ± 4 kg/m3. For the same molecule, the mass density ([1]; 333.15 K, 5960 kPa) was 675.95 ± 4.1 kg/m3, the mass density ([1]; 333.15 K, 6960 kPa) was 676.93 ± 4.1 kg/m3 and the mass density ([1]; 333.15 K, 7990 kPa) was 677.93 ± 4.1 kg/m3. The mass density ([1]; 333.15 K, 8990 kPa) was 678.93 ± 4.1 kg/m3, the mass density ([1]; 333.15 K, 10000 kPa) was 679.89 ± 4.1 kg/m3 and the mass density ([1]; 333.15 K, 11050 kPa) was 680.86 ± 4.1 kg/m3. It also gave a mass density ([1]; 333.15 K, 11940 kPa) of 681.81 ± 4.1 kg/m3, a mass density ([1]; 333.15 K, 12950 kPa) of 682.71 ± 4.1 kg/m3 and a mass density ([1]; 333.15 K, 13950 kPa) of 683.67 ± 4.1 kg/m3. It also gave a mass density ([1]; 333.15 K, 14960 kPa) of 684.58 ± 4.1 kg/m3, a mass density ([1]; 333.15 K, 15960 kPa) of 685.48 ± 4.1 kg/m3 and a mass density ([1]; 333.15 K, 16960 kPa) of 686.34 ± 4.1 kg/m3. It also gave a mass density ([1]; 333.15 K, 17990 kPa) of 687.26 ± 4.1 kg/m3, a mass density ([1]; 333.15 K, 18990 kPa) of 688.1 ± 4.1 kg/m3 and a mass density ([1]; 333.15 K, 20000 kPa) of 688.97 ± 4.2 kg/m3. The mass density ([1]; 343.15 K, 100 kPa) was 661.02 ± 4 kg/m3, the mass density ([1]; 343.15 K, 960 kPa) was 662.23 ± 4 kg/m3 and the mass density ([1]; 343.15 K, 1970 kPa) was 663.39 ± 4 kg/m3. For the same molecule, the mass density ([1]; 343.15 K, 2980 kPa) was 664.55 ± 4 kg/m3, the mass density ([1]; 343.15 K, 3980 kPa) was 665.65 ± 4 kg/m3 and the mass density ([1]; 343.15 K, 4990 kPa) was 666.79 ± 4 kg/m3. It also gave a mass density ([1]; 343.15 K, 5990 kPa) of 667.86 ± 4 kg/m3, a mass density ([1]; 343.15 K, 7000 kPa) of 668.94 ± 4 kg/m3 and a mass density ([1]; 343.15 K, 8010 kPa) of 670.02 ± 4 kg/m3. For the same molecule, the mass density ([1]; 343.15 K, 9010 kPa) was 671.05 ± 4 kg/m3, the mass density ([1]; 343.15 K, 10100 kPa) was 672.12 ± 4 kg/m3 and the mass density ([1]; 343.15 K, 10960 kPa) was 673.13 ± 4 kg/m3. For the same molecule, the mass density ([1]; 343.15 K, 11970 kPa) was 674.15 ± 4 kg/m3, the mass density ([1]; 343.15 K, 12980 kPa) was 675.12 ± 4.1 kg/m3 and the mass density ([1]; 343.15 K, 13980 kPa) was 676.13 ± 4.1 kg/m3. The mass density ([1]; 343.15 K, 14990 kPa) was 677.1 ± 4.1 kg/m3, the mass density ([1]; 343.15 K, 15990 kPa) was 678.03 ± 4.1 kg/m3 and the mass density ([1]; 343.15 K, 17000 kPa) was 678.97 ± 4.1 kg/m3. It also gave a mass density ([1]; 343.15 K, 18010 kPa) of 679.93 ± 4.1 kg/m3, a mass density ([1]; 343.15 K, 19010 kPa) of 680.86 ± 4.1 kg/m3 and a mass density ([1]; 343.15 K, 20100 kPa) of 681.78 ± 4.1 kg/m3. The mass density ([1]; 353.15 K, 100 kPa) was 652.22 ± 3.9 kg/m3, the mass density ([1]; 353.15 K, 1060 kPa) was 653.65 ± 3.9 kg/m3 and the mass density ([1]; 353.15 K, 1940 kPa) was 654.91 ± 3.9 kg/m3. The mass density ([1]; 353.15 K, 2950 kPa) was 656.12 ± 3.9 kg/m3, the mass density ([1]; 353.15 K, 3960 kPa) was 657.35 ± 4 kg/m3 and the mass density ([1]; 353.15 K, 4960 kPa) was 658.54 ± 4 kg/m3. It also gave a mass density ([1]; 353.15 K, 5960 kPa) of 659.71 ± 4 kg/m3, a mass density ([1]; 353.15 K, 6970 kPa) of 660.9 ± 4 kg/m3 and a mass density ([1]; 353.15 K, 7980 kPa) of 662.03 ± 4 kg/m3. The mass density ([1]; 353.15 K, 8980 kPa) was 663.17 ± 4 kg/m3, the mass density ([1]; 353.15 K, 9980 kPa) was 664.24 ± 4 kg/m3 and the mass density ([1]; 353.15 K, 11060 kPa) was 665.33 ± 4 kg/m3. For the same molecule, the mass density ([1]; 353.15 K, 11940 kPa) was 666.44 ± 4 kg/m3, the mass density ([1]; 353.15 K, 12950 kPa) was 667.49 ± 4 kg/m3 and the mass density ([1]; 353.15 K, 13960 kPa) was 668.52 ± 4 kg/m3. For the same molecule, the mass density ([1]; 353.15 K, 14960 kPa) was 669.56 ± 4 kg/m3, the mass density ([1]; 353.15 K, 15960 kPa) was 670.6 ± 4 kg/m3 and the mass density ([1]; 353.15 K, 16970 kPa) was 671.6 ± 4 kg/m3. For the same molecule, the mass density ([1]; 353.15 K, 17980 kPa) was 672.57 ± 4 kg/m3, the mass density ([1]; 353.15 K, 18980 kPa) was 673.56 ± 4.1 kg/m3 and the mass density ([1]; 353.15 K, 19980 kPa) was 674.52 ± 4.1 kg/m3. For the same molecule, the mass density ([1]; 363.15 K, 100 kPa) was 643.71 ± 3.9 kg/m3, the mass density ([1]; 363.15 K, 950 kPa) was 644.91 ± 3.9 kg/m3 and the mass density ([1]; 363.15 K, 1960 kPa) was 646.3 ± 3.9 kg/m3. The mass density ([1]; 363.15 K, 2970 kPa) was 647.63 ± 3.9 kg/m3, the mass density ([1]; 363.15 K, 3970 kPa) was 648.92 ± 3.9 kg/m3 and the mass density ([1]; 363.15 K, 4980 kPa) was 650.23 ± 3.9 kg/m3. The mass density ([1]; 363.15 K, 5980 kPa) was 651.49 ± 3.9 kg/m3, the mass density ([1]; 363.15 K, 6990 kPa) was 652.73 ± 3.9 kg/m3 and the mass density ([1]; 363.15 K, 7990 kPa) was 653.97 ± 3.9 kg/m3. For the same molecule, the mass density ([1]; 363.15 K, 8990 kPa) was 655.15 ± 3.9 kg/m3, the mass density ([1]; 363.15 K, 10090 kPa) was 656.34 ± 4 kg/m3 and the mass density ([1]; 363.15 K, 10950 kPa) was 657.54 ± 4 kg/m3. It also gave a mass density ([1]; 363.15 K, 11960 kPa) of 658.66 ± 4 kg/m3, a mass density ([1]; 363.15 K, 12970 kPa) of 659.79 ± 4 kg/m3 and a mass density ([1]; 363.15 K, 13970 kPa) of 660.94 ± 4 kg/m3. The mass density ([1]; 363.15 K, 14980 kPa) was 662.01 ± 4 kg/m3, the mass density ([1]; 363.15 K, 15980 kPa) was 663.09 ± 4 kg/m3 and the mass density ([1]; 363.15 K, 16990 kPa) was 664.19 ± 4 kg/m3. The mass density ([1]; 363.15 K, 17990 kPa) was 665.21 ± 4 kg/m3, the mass density ([1]; 363.15 K, 18990 kPa) was 666.28 ± 4 kg/m3 and the mass density ([1]; 363.15 K, 20090 kPa) was 667.28 ± 4 kg/m3. For the same molecule, the refractive index [2] was 1.398 ± 0.004.
